# Laboratory results published in patent US8338465B2, “Cyclic carboxylic acid rhodanine derivatives for the treatment and prevention of tuberculosis” (priority 2006, dated 2012).
# Target: T1, dihydrolipoamide acyltransferase (DlaT) (Mycobacterium tuberculosis, UniProt P9WIS7)
# T1 sequence (P9WIS7 1-553): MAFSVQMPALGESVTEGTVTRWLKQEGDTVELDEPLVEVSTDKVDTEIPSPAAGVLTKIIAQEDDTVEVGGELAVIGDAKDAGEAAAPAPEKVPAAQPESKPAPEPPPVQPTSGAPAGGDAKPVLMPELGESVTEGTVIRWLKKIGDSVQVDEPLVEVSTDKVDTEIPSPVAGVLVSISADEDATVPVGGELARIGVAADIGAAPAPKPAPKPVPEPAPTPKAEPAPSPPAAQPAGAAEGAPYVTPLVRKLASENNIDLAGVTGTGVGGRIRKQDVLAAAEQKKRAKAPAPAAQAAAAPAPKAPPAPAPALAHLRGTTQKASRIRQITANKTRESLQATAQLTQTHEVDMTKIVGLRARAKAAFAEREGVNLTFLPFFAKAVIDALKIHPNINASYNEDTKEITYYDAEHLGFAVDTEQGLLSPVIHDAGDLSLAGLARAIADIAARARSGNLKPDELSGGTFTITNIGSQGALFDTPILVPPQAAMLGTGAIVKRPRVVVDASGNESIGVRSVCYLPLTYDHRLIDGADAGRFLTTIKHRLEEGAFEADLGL
# Assay: DlaT inhibition (Dlat IC50); DTNB peroxidase assay with Lpd, DlaT and AhpD
# Type: biochemical
# Conditions: Dlat IC50 category
row,SMILES,IC50 [µM]
1,"O=C(O)C1CCCC(N2C(=O)C(=Cc3ccc(-c4ccccc4F)s3)SC2=S)C1 (stereo not drawn) [Compound C35, 3-{5-[1-[5-(2-fluoro-phenyl)-thiophen-2-yl]-methylidene]-4-oxo-2-thioxo-thiazolidin-3-yl}-cyclohexanecarboxylic acid]",11 to 40
2,"CCc1ccc(-c2ccc(C=C3SC(=S)N(C4CCCC(C(=O)O)C4)C3=O)o2)cc1 (stereo not drawn) [Compound C36, 3-{5-[1-[5-(4-ethyl-phenyl)-furan-2-yl]-methylidene]-4-oxo-2-thioxo-thiazolidin-3-yl}-cyclohexanecarboxylic acid]",< 10
3,"O=C(O)C1CCCC(N2C(=O)C(=Cc3ccc(-c4ccc(C(F)(F)F)cc4)o3)SC2=S)C1 (stereo not drawn) [Compound C37, 3-{4-oxo-2-thioxo-5-[1-[5-(4-trifluoromethyl-phenyl)-furan-2-yl]-methylidene]-thiazolidin-3-yl}-cyclohexanecarboxylic acid]",< 10
4,"O=C(O)C1CCCC(N2C(=O)C(=Cc3ccc(-c4cccc(-c5ccccc5)c4)o3)SC2=S)C1 (stereo not drawn) [Compound C38, 3-{5-[1-(5-biphenyl-3-yl-furan-2-yl)-methylidene]-4-oxo-2-thioxo-thiazolidin-3-yl}-cyclohexanecarboxylic acid]",< 10
5,"CC(=O)Nc1ccc(-c2ccc(C=C3SC(=S)N(C4CCCC(C(=O)O)C4)C3=O)o2)cc1 (stereo not drawn) [Compound C39, 3-{5-[5-(4-Acetylamino-phenyl)-furan-2-ylmethylene]-4-oxo-2-thioxo-thiazolidin-3-yl}-cyclohexanecarboxylic acid]",< 10
6,"CC(=O)c1ccc(-c2ccc(C=C3SC(=S)N(C4CCCC(C(=O)O)C4)C3=O)o2)cc1 (stereo not drawn) [Compound C40, 3-{5-[1-[5-(4-acetyl-phenyl)-furan-2-yl]-methylidene]-4-oxo-2-thioxo-thiazolidin-3-yl}-cyclohexanecarboxylic acid]",< 10
7,"O=C(O)C1CCCC(N2C(=O)C(=Cc3ccc(-c4ccccc4F)o3)SC2=S)C1 (stereo not drawn) [Compound C41, 3-{5-[1-[5-(2-fluoro-phenyl)-furan-2-yl]-methylidene]-4-oxo-2-thioxo-thiazolidin-3-yl}-cyclohexanecarboxylic acid]",< 10
8,"O=C(O)C1CCCC(N2C(=O)C(=Cc3ccc(-c4cccc(CO)c4)o3)SC2=S)C1 (stereo not drawn) [Compound C42, 3-{5-[1-[5-(3-hydroxymethyl-phenyl)-furan-2-yl]-methylidene]-4-oxo-2-thioxo-thiazolidin-3-yl}-cyclohexanecarboxylic acid]",< 10
9,"O=C(O)C1CCCC(N2C(=O)C(=Cc3ccc(-c4ccc(F)cc4)o3)SC2=S)C1 (stereo not drawn) [Compound C43, 3-{5-[1-[5-(4-fluoro-phenyl)-furan-2-yl]-methylidene]-4-oxo-2-thioxo-thiazolidin-3-yl}-cyclohexanecarboxylic acid]",< 10
10,"O=C(O)C1CCC(N2C(=O)C(=Cc3ccc(-c4ccccc4F)o3)SC2=S)CC1 (stereo not drawn) [Compound C44, 4-{5-[1-[5-(2-fluoro-phenyl)-furan-2-yl]-methylidene]-4-oxo-2-thioxo-thiazolidin-3-yl}-cyclohexanecarboxylic acid]",< 10
11,"Cc1ccc(-c2ccc(C=C3SC(=S)N(C4CCC(C(=O)O)CC4)C3=O)o2)cc1 (stereo not drawn) [Compound C45, 4-{4-oxo-2-thioxo-5-[1-(5-p-tolyl-furan-2-yl)-methylidene]-thiazolidin-3-yl}-cyclohexanecarboxylic acid]",< 10
12,"Cc1ccc(-c2ccc(C=C3SC(=S)N(C4CCC(C(=O)O)CC4)C3=O)o2)c(F)c1 (stereo not drawn) [Compound C46, 4-{5-[1-[5-(2-fluoro-4-methyl-phenyl)-furan-2-yl]-methylidene]-4-oxo-2-thioxo-thiazolidin-3-yl}-cyclohexanecarboxylic acid]",< 10
13,"O=C(O)C1CCC(N2C(=O)C(=Cc3ccc(-c4ccccc4F)s3)SC2=S)CC1 (stereo not drawn) [Compound C47, 4-{5-[1-[5-(2-fluoro-phenyl)-thiophen-2-yl]-methylidene]-4-oxo-2-thioxo-thiazolidin-3-yl}-cyclohexanecarboxylic acid]",11 to 40
14,"CCOc1ccc(-c2ccc(C=C3SC(=S)N(C4CCCC(C(=O)O)C4)C3=O)o2)cc1 (stereo not drawn) [Compound C51, 3-{5-[1-[5-(4-ethoxy-phenyl)-furan-2-yl]-methylidene]-4-oxo-2-thioxo-thiazolidin-3-yl}-cyclohexanecarboxylic acid]",< 10
15,"CCOc1ccc(-c2ccc(C=C3SC(=S)N(C4CCC(C(=O)O)CC4)C3=O)o2)cc1 (stereo not drawn) [Compound C52, 4-{5-[1-[5-(4-ethoxy-phenyl)-furan-2-yl]-methylidene]-4-oxo-2-thioxo-thiazolidin-3-yl}-cyclohexanecarboxylic acid]",< 10
16,"COc1ccc(-c2ccc(C=C3SC(=S)N(C4CCC(C(=O)O)CC4)C3=O)o2)cc1F (stereo not drawn) [Compound C53, 4-{5-[1-[5-(3-fluoro-4-methoxy-phenyl)-furan-2-yl]-methylidene]-4-oxo-2-thioxo-thiazolidin-3-yl}-cyclohexanecarboxylic acid]",< 10
17,"CSc1ccccc1-c1ccc(C=C2SC(=S)N(C3CCC(C(=O)O)CC3)C2=O)o1 (stereo not drawn) [Compound C54, 4-{5-[1-[5-(2-methylsulfanyl-phenyl)-furan-2-yl]-methylidene]-4-oxo-2-thioxo-thiazolidin-3-yl}-cyclohexanecarboxylic acid]",< 10
18,"O=C(O)C1CCC(N2C(=O)C(=Cc3ccc(-c4ccc(C(F)(F)F)cc4)o3)SC2=S)CC1 (stereo not drawn) [Compound C55, 4-{4-oxo-2-thioxo-5-[1-[5-(4-trifluoromethyl-phenyl)-furan-2-yl]-methylidene]-thiazolidin-3-yl}-cyclohexanecarboxylic acid]",11 to 40
19,"O=C(O)C1CCCC(N2C(=O)C(=Cc3ccc(-c4ccc(Cl)cc4)o3)SC2=S)C1 (stereo not drawn) [Compound C56, 3-{5-[1-[5-(4-chloro-phenyl)-furan-2-yl]-methylidene]-4-oxo-2-thioxo-thiazolidin-3-yl}-cyclohexanecarboxylic acid]",< 10
20,"CCCCOc1ccc(-c2ccc(C=C3SC(=S)N(C4CCC(C(=O)O)CC4)C3=O)o2)cc1 (stereo not drawn) [Compound C57, 4-{5-[1-[5-(4-butoxy-phenyl)-furan-2-yl]-methylidene]-4-oxo-2-thioxo-thiazolidin-3-yl}-cyclohexanecarboxylic acid]",11 to 40
21,"CS(=O)(=O)c1ccc(-c2ccc(C=C3SC(=S)N(C4CCCC(C(=O)O)C4)C3=O)o2)cc1 (stereo not drawn) [Compound C58, 3-{5-[5-(4-Methanesulfonyl-phenyl)-furan-2-ylmethylene]-4-oxo-2-thioxo-thiazolidin-3-yl}-cyclohexanecarboxylic acid]",< 10
22,"CS(=O)(=O)c1ccc(-c2ccc(C=C3SC(=S)N(C4CCC(C(=O)O)CC4)C3=O)o2)cc1 (stereo not drawn) [Compound C59, 4-{5-[5-(4-Methanesulfonyl-phenyl)-furan-2-ylmethylene]-4-oxo-2-thioxo-thiazolidin-3-yl}-cyclohexanecarboxylic acid]",< 10
23,"Cc1ccccc1-c1ccc(C=C2SC(=S)N(C3CCCC(C(=O)O)C3)C2=O)o1 (stereo not drawn) [Compound C60, 3-{4-oxo-2-thioxo-5-[1-(5-o-tolyl-furan-2-yl)-methylidene]-thiazolidin-3-yl}-cyclohexanecarboxylic acid]",< 10
24,"Cc1ccccc1-c1ccc(C=C2SC(=S)N(C3CCC(C(=O)O)CC3)C2=O)o1 (stereo not drawn) [Compound C61, 4-{4-oxo-2-thioxo-5-[1-(5-o-tolyl-furan-2-yl)-methylidene]-thiazolidin-3-yl}-cyclohexanecarboxylic acid]",11 to 40
25,"CSc1cccc(-c2ccc(C=C3SC(=S)N(C4CCCC(C(=O)O)C4)C3=O)o2)c1 (stereo not drawn) [Compound C62, 3-{5-[1-[5-(3-methylsulfanyl-phenyl)-furan-2-yl]-methylidene]-4-oxo-2-thioxo-thiazolidin-3-yl}-cyclohexanecarboxylic acid]",< 10
26,"CSc1cccc(-c2ccc(C=C3SC(=S)N(C4CCC(C(=O)O)CC4)C3=O)o2)c1 (stereo not drawn) [Compound C63, 4-{5-[1-[5-(3-methylsulfanyl-phenyl)-furan-2-yl]-methylidene]-4-oxo-2-thioxo-thiazolidin-3-yl}-cyclohexanecarboxylic acid]",< 10
27,"CSc1ccc(-c2ccc(C=C3SC(=S)N(C4CCCC(C(=O)O)C4)C3=O)o2)cc1 (stereo not drawn) [Compound C64, 3-{5-[1-[5-(4-methylsulfanyl-phenyl)-furan-2-yl]-methylidene]-4-oxo-2-thioxo-thiazolidin-3-yl}-cyclohexanecarboxylic acid]",< 10
28,"CSc1ccc(-c2ccc(C=C3SC(=S)N(C4CCC(C(=O)O)CC4)C3=O)o2)cc1 (stereo not drawn) [Compound C65, 4-{5-[1-[5-(4-methylsulfanyl-phenyl)-furan-2-yl]-methylidene]-4-oxo-2-thioxo-thiazolidin-3-yl}-cyclohexanecarboxylic acid]",< 10
29,"CC(C)Oc1ccc(-c2ccc(C=C3SC(=S)N(C4CCCC(C(=O)O)C4)C3=O)o2)cc1 (stereo not drawn) [Compound C66, 3-{5-[5-(4-Isopropoxy-phenyl)-furan-2-ylmethylene]-4-oxo-2-thioxo-thiazolidin-3-yl}-cyclohexanecarboxylic acid]",< 10
30,"CC(C)Oc1ccc(-c2ccc(C=C3SC(=S)N(C4CCC(C(=O)O)CC4)C3=O)o2)cc1 (stereo not drawn) [Compound C67, 4-{5-[5-(4-Isopropoxy-phenyl)-furan-2-ylmethylene]-4-oxo-2-thioxo-thiazolidin-3-yl}-cyclohexanecarboxylic acid]",< 10
